Starred links: 1 amine or outer side, 2 acyl side, 3 side chain; linkers in the order of their positions; H or OH if unused. Positions of bridges follow the written chain, without caps; N, C: chain ends. Non-standard residues stand in square brackets, D forms with d. Residues, ends and D or L forms follow the SMILES beside them. *: point of attachment. 5FAM = O=C1OC2(c3ccc(O)cc3Oc3cc(O)ccc32)c2ccc(C(=O)*)cc21; Trimesoyl = O=C(c1cc(C(=O)[*:2])cc(C(=O)[*:3])c1)[*:1]; Phe(4-Cl) = N[C@@H](Cc1ccc(Cl)cc1)C(=O)O; Phe(4-F) = N[C@@H](Cc1ccc(F)cc1)C(=O)O; d2Nal = N[C@H](Cc1ccc2ccccc2c1)C(=O)O; βAsp = O=C(O)[C@H](CC(=O)[*:2])N[*:1]; Phg = N[C@H](C(=O)O)c1ccccc1; Dap = NC[C@H](N)C(=O)O; βAla = NCCC(=O)O
Key:
[1] = tested on: E. chaffeensis; assay: morphological examination of E. chaffeensis infection of THP-1 cells by Diff-Quik staining; details: for E. chaffeensis infection (numbers and sizes of morulae): THP-1 cells, Fig. S4 (with Figs. 5, S3)
Experimental: Ehrlichia chaffeensis Arkansas strain ([43]) was cultured in THP-1 cells (ATCC, Manassas, VA, USA) in RPMI 1640 medium (Corning, Manassas, VA, USA) supplemented with 8% FBS (Atlanta Biologicals, Flowery Branch, GA, USA) and 4 mM L-glutamine (at 37°C under 5% CO2 in a humidified atmosphere. THP-1 cells were seeded at 1 × 10^5 cells/well (in 1.5-mL RPMI 1640 culture medium with 8% FBS, 4 mM L-Gln) in a 12-well plate, then infected with host cell-free E. chaffeensis at an MOI (multiplicity of infection, or numbers of bacteria per cell) of ∼30. Cells were cultured in a humidified incubator with 5% CO2 and 95% air. No antibiotic was used throughout the study. At 0.5 h post infection (pi), cells were incubated with 1–10 μM of peptides or with an equal volume of DMSO (solvent control, 2 μL per mL medium). At 2 days pi, cells were washed with 1 mL of PBS, and two drops of cells were cytospun onto glass slides by a Shandon Cytospin 4 cytocentrifuge (Thermo Fisher Scientific), then fixed and stained with HEMA 3 staining solutions (Thermo Fisher Scientific). Ehrlichia infection was observed and images were captured by a SPOT RT digital camera (Diagnostic Instruments, Sterling Heights, MI, USA) coupled to a Nikon Eclipse E400 microscope (Nikon, Melville, NY, USA).

[2] = LDH release assay (plasma membrane damage); format: cell-based; details: Fig. S2
Experimental: LDH release assay (Promega) was performed to assess the level of plasma membrane damage in a cell population by these compounds. […] Control wells contained 10 μL of lysis buffer, cell-free complete growth media, or positive LDH control. Following incubation at 37°C and 5% CO2 for 45 to 75 min, the culture was centrifuged and 50 μL of the growth medium was withdrawn from each well, transferred to a clear 96-well plate, mixed with 50 μL of LDH substrate mixture, and incubated at RT for 30 min with gentle mixing. Finally, 50 μL of 1 N HCl was added to each well, and the absorbances at 490 and 680 nm were immediately measured on a Tecan Infinite M1000 plate reader. Relative membrane leakage was calculated and plotted using GraphPad Prism v8.0.

[3] = tested on: E. chaffeensis; assay: E. chaffeensis infection of THP-1 cells, qPCR of 16S rRNA gene normalized to human actin; format: cell-based, Ehrlichia chaffeensis; details: 10 μM, 2 days, vs DMSO control
Experimental: Therefore, we investigated whether these Etf-1-binding peptides can prevent the proliferation of E. chaffeensis inside host cells. THP-1 cells were infected with E. chaffeensis, then treated with the peptides at 30 min post infection (pi) for 2 days. Intracellular infection and proliferation of E. chaffeensis inside host THP-1 cells were assessed using quantitative PCR (qPCR) analysis based on E. chaffeensis 16S rRNA gene normalized by human actin (ACT) gene.
Fig. 5. Effects of Etf-1-binding peptides on E. chaffeensis infection of THP-1 cells. Ehrlichia chaffeensis-infected THP-1 cells at […] were incubated with 10 μM of Etf-1-binding macrocyclic peptide or DMSO control for 2 days.
No antibiotic was used throughout the study.
DNA was extracted from each sample using Qiagen blood mini kit according to the manufacturer's instructions (Qiagen, Valencia, CA, USA), and qPCR analysis was performed in an MX3000P qPCR instrument (Stratagene, San Diego, CA, USA) using SYBR Green Real-Time PCR Master Mix (Thermo Fisher Scientific) according to the manufacturer's instructions. Five-fold serial dilutions of the control group were used to generate a standard curve to calculate the relative copy numbers of E. chaffeensis 16S rRNA normalized against human actin genes using the MX3000P software from Stratagene as described previously ([18], [44]).

[4] = tested on: BECN1 binding to Etf-1; assay: streptavidin magnetic beads pull-down of BECN1 with biotin-Etf-1, Western blot; format: biochemical; details: 10 µM peptide; for BECN1/Etf-1 Ratio: band intensities, DMSO control set as 1, Fig. 8B
Experimental: Fig. 8.
Streptavidin magnetic beads (15 µL, Pierce, Rockford, IL, USA) were washed with 1 mL of Bind/Wash buffer (25 mM Tris, pH 7.4; 250 mM NaCl, 0.1% Tween 20), and incubated with 0.15 µg ([…] final concentration) of biotinylated full-length Etf-1 protein in bind/wash buffer at 4°C overnight with end-to-end rotation. Beads were washed three times with Bind/Wash buffer, then incubated with Etf-1-binding macrocyclic peptides (10 µM) or DMSO control in Bind/Wash buffer at room temperature for 2 h. […] Beads were washed three times, and proteins were eluted from the beads with 50 µL of 2× SDS-sample buffer. […] Reacting bands were visualized with enhanced chemiluminescence by incubating the membrane with LumiGLO chemiluminescent reagent (Thermo Fisher Scientific). Images were captured by Amersham Imager 680 (GE Healthcare) and densitometry analysis was performed using ImagQuaNT (GE Healthcare). In each specimen, band intensities were normalized against those of actin as the loading control, and the ratios of the treatment group to the control group were calculated with the value in the control groups arbitrarily set as 1.0.

[5] = biological target: Etf-1 (Ehrlichia chaffeensis, UniProt Q2GG12); assay: biochemical; format: binding; details: unlabeled competitor peptides vs FAM-B7-133-8
Chain of Etf-1 (Q2GG12 entry or part of it): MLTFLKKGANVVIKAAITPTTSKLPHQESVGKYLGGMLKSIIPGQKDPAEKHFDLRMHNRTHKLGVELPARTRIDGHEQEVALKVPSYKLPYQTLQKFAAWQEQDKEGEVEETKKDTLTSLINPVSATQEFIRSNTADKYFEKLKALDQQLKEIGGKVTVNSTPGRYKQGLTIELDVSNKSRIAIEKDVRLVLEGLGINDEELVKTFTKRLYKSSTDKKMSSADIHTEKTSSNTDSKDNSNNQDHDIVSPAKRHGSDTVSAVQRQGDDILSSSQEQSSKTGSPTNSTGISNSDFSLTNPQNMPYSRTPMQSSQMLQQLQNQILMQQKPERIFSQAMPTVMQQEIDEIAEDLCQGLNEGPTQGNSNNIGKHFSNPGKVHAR
Experimental: Fig. 2. Determination of binding affinity of Etf-1-binding peptides by FP assay. […] FAM-labeled peptide (50 nM) was incubated with serially diluted Etf-1 (starting from 25–30 μM in PBS, pH 7.4, supplemented with 5 mM DTT and 0.01% Triton X-100) for 1 h at RT. FP values were measured on a Tecan Infinite M1000 Pro plate reader. Titration curves (n ≥ 3) were fitted using GraphPad Prism and analyzed with TraceDrawer to calculate dissociation constants (KD). […] Data were analyzed using GraphPad Prism and fitted to a four-parameter variable slope equation to determine IC50 values.
Serial dilutions of competitor peptide (0-20 μM) were prepared from DMSO stock solutions into PBS containing 0.01% Triton-X100 and 2 mM TCEP and added to aliquots of the equilibrated Etf-1/probe solution. After incubation for 1 h in the dark and with gentle mixing, 20 μL of each sample was transferred into 384-well black-on-black microplates and FP was measured using a TECAN Infinite M1000 plate reader. Data were analyzed using GraphPad PRISM ver. 8.0 and fit to a four-parameter variable slope equation to determine IC50 values. IC50 values reported are the mean ± SD of n = 2–4 independent experiments.

[6] = tested on: THP-1 cells; assay: CellTiter-Glo luminescent cell viability assay; details: 2-day treatment; for cell viability: 20 μM
Text: THP-1 (human promyelocytic leukemia) cells are widely used as E. chaffeensis infection studies of human monocytes in vitro, since initial characterization of infection ([31]).
Fig. 4. Cytotoxicity and proteolytic stability of Etf-1-binding peptides. (A) Effect of Etf-1-binding peptides on the viability of THP-1 cells as determined by CellTiter-Glo luminescent assay. Relative luminescence was plotted as function of the peptide concentration, with the cell viability of DMSO control group set as 100%. (B) Plot of the amount of intact peptide remaining as a function of the incubation time in 25% human serum. All values are normalized to that of peptide at time 0 (100%).
Cytotoxicity of Etf-1-binding peptides was examined by CellTiter-Glo luminescent cell viability assay (Promega, Madison, WI, USA). THP-1 cells were seeded in a transparent 96-well plate at a density of 5 × 10^3 cells/well (100 μL in each well) in RPMI-1640 containing 10% FBS and 1% antibiotics and cultured overnight. Etf-1-binding peptides were serially diluted in DPBS from a DMSO stock and added to the cells with the final concentration of 0–25 μM and a constant final concentration of 0.5% DMSO (v/v). After incubation at 37°C with 5% CO2 for 46 h, the plate was removed and pre-equilibrated to RT before the addition of 100 μL of the CellTiter-Glo 2.0 reagent to each well. The plate was incubated for 15 min on a rotary shaker in the dark, and the luminescence was detected (1-s integration time) on a Tecan Infinite M1000 Pro microplate reader. Relative luminescence was plotted as function of the peptide concentration, with the cell viability of DMSO control group set as 100%.

Compound | E. chaffeensis infection (numbers and sizes of morulae) [1] | cytotoxicity (cell lysis in treated groups) ([1]; THP-1 host cells) | release of lactate dehydrogenase (LDH) [2] | inhibition of E. chaffeensis infection [3] | disruption of BECN1 binding to Etf-1 ([4]; compared to DMSO control) | BECN1/Etf-1 Ratio [4] | competition for Etf-1 binding [5] | cell viability [6] | cytotoxicity ([6]; up to 10 μM)
CC(C)C[C@H]1NC(=O)[C@H](C)NC(=O)[C@H](CC(=O)O)NC(=O)[C@@H](Cc2ccc3ccccc3c2)NC(=O)[C@H]2CCCN2C(=O)[C@H](Cc2c[nH]cn2)NC(=O)[C@H](Cc2ccc(O)cc2)NC(=O)c2cc3cc(c2)C(=O)NC[C@H](NC1=O)C(=O)N[C@@H](Cc1ccc(Cl)cc1)C(=O)N[C@H](Cc1ccc2ccccc2c1)C(=O)N[C@H](CCCNC(=N)N)C(=O)N[C@@H](CCCNC(=N)N)C(=O)N[C@H](CCCNC(=N)N)C(=O)N[C@@H](CCCNC(=N)N)C(=O)N[C@H](C(N)=O)CNC3=O [Peptide B7-131-5, TMA-Tyr-His-pro-nal-Asp-Ala-leu-Dap-4-ClPhe-nal-arg-Arg-arg-Arg-Dap] (YH[dP][d2Nal]DA[dL][Dap][Phe(4-Cl)][d2Nal][dR]R[dR]R[Dap]-NH2; linker N-8-15 via Trimesoyl) | significantly inhibited | certain degrees of cytotoxicity | significant release of lactate dehydrogenase | significantly inhibited | disrupted BECN1 binding to Etf-1 | 0.23 | Competition for Etf-1 binding was observed | greater loss of cell viability | –
CC(C)C[C@H]1NC(=O)C[C@@H](C(=O)O)NC(=O)[C@@H](Cc2ccc(O)cc2)NC(=O)[C@H](c2ccccc2)NC(=O)[C@H](CC(=O)O)NC(=O)[C@H](Cc2ccc(F)cc2)NC(=O)[C@H](Cc2ccc(O)cc2)NC(=O)c2cc3cc(c2)C(=O)NC[C@H](NC1=O)C(=O)N[C@@H](Cc1ccc(Cl)cc1)C(=O)N[C@H](Cc1ccc2ccccc2c1)C(=O)N[C@H](CCCNC(=N)N)C(=O)N[C@@H](CCCNC(=N)N)C(=O)N[C@H](CCCNC(=N)N)C(=O)N[C@@H](CCCNC(=N)N)C(=O)N[C@H](C(=O)NCCC(=O)NCCC(=O)N[C@@H](CCCCNC(=O)c1ccc2c(c1)C(=O)OC21c2ccc(O)cc2Oc2cc(O)ccc21)C(N)=O)CNC3=O [Peptide B7-131-4, TMA-Tyr-Fpa-Asp-Phg-tyr-isoAsp-leu-Dap-4-ClPhe-nal-arg-Arg-arg-Arg-Dap] (Y[Phe(4-F)]D[Phg][dY][βAsp][dL][Dap][Phe(4-Cl)][d2Nal][dR]R[dR]R[Dap][βAla][βAla]K(5FAM)-NH2; linker N-8-15 via Trimesoyl) | only slightly reduced | – | – | – | – | 0.91 | Competition for Etf-1 binding was observed | slightly reduced the cell viability | no cytotoxicity
